Source: patent US20260199493A1 (priority 2021, published 2026)
Read-outs that look alike come from different tables or passages of the source. Starred links: 1 amine or outer side, 2 acyl side, 3 side chain; linkers in the order of their positions; H or OH if unused. Non-standard residues stand in square brackets, D forms with d. Residues, ends and D or L forms follow the SMILES beside them. Groups on a side chain read outwards from the residue. *: point of attachment. X1 = NC(=O)[C@H](CCCCNC(=O)COCCOCCNC(=O)CCC(=O)NCCOCCOCCCCCCCl)N*; Ala(piperidin-4-yl) = O=C([C@H](CC1CCN([*:3])CC1)N[*:1])[*:2]; Phe(4-guanidino) = N=C(N)Nc1ccc(C[C@H](N)C(=O)O)cc1; 2Nal = N[C@@H](Cc1ccc2ccccc2c1)C(=O)O; Lys(Me2) = CN(C)CCCC[C@H](N)C(=O)O; hArg = N=C(N)NCCCC[C@H](N)C(=O)O; Cit = NC(=O)NCCC[C@H](N)C(=O)O; Agb = N=C(N)NCC[C@H](N)C(=O)O; Agp = N=C(N)NC[C@H](N)C(=O)O; PEG4 = NCCOCCOCCOCCOCCC(=O)O

Experiments:
[1] = tested on: HaloTag-ActA fusion protein; assay: Chloroalkane penetration assay (HaloTag); type: cell-based; conditions: HEK293-HaloTag cells, chloroalkane-tagged peptide, 24 h with FBS, then 5 μM TMR-ct
Source text: Assay design. HEK293 cells were produced that stably express a HaloTag-ActA fusion protein (“HEK293-HaloTag”) which ensures fusion protein localization to the outer mitochondrial membrane with exposure to the cytosol. The HaloTag protein rapidly reacts covalently with short chloroalkane-containing compounds, occupying the active site and preventing further reactions. The chloroalkane penetration assay utilizes this reactivity in a pulse-chase assay where cells are first treated with cCPPs-chloroalkane of interest, followed by incubation with cell-permeable fluorescent dye tetramethylrhodamine-chloroalkane (“TMR-ct”). If cCPPs have gained access to the cytosol, they will react with HaloTag and prevent it from reacting with TMR-ct. The relative cell-penetrating efficiency of compounds can therefore be determined by their ability to reduce cellular TMR fluorescence after a washout period with this value expressed as IC50.
Cell penetrating peptides. Cell penetrating peptides having the sequences indicated in Table 13 (below) were functionalized on the lysine residue with a chloroalkane tag of the sequence N^1-(2-(2-((5-chlorohexyl)oxy)ethoxy)ethyl-N^4-(2-(2-(2-oxoethoxy)ethoxy)ethyl)succinamide (referred to as “chloroalkane” in Table 13), purified, and prepared as stock solutions in DMSO with concentration determined by A280 or weight as applicable.
Determination of cell-penetrating efficiency. Compounds to be evaluated were prepared as stock solutions in DMSO and diluted in PBS before addition to HEK293-HaloTag ells as a serial dilution from 30 μM to 0.5 nM. Cells were incubated with the compounds at a given concentration for 24 h in the presence of FBS at 37° C. After incubation, cells were washed thoroughly with PBS and to the cells was added fresh, serum-free media containing 5 μM TMR-ct and incubated for 30 min. After incubation, the cells were washed and incubated in fresh media to wash-out any unreacted TMR-ct. Cells were then imaged and quantified for cellular fluorescence using high-content imaging. Values are normalized to vehicle-treated cells and an IC50 calculated using a 4-parameter logarithmic fit in GraphPad PRISM v.8.

[2] = tested on: exon 44 of human dystrophin mRNA; assay: Exon 44 skipping by RT-PCR in hDMD mice; type: in vivo; conditions: hDMD mice, 5 days
Experimental: The hemizygous mice were further genotyped at Transnetyx. All groups were dosed 5 mL/kg per animal by intravenous (iv) injection and sacrificed after 5 days post injection. All animals were euthanized by CO2 asphyxiation followed by terminal blood collection via cardiac puncture. Maximum obtainable volume of whole blood was collected into lithium heparin tubes and processed to plasma. A portion of plasma was analyzed for clinical chemistries by the Testing Facility (IDEXX) and the rest stored frozen at nominally −70° C. […] Animals were age matched and assigned into eight (8) treatment groups according to Table 15. […] All animals survived until their scheduled euthanasia time. Tissues were collected per protocol. The amount of AC and a cCPP-AC in various tissue samples was quantified by LC-MS. Exon skipping in different tissues were analyzed by RT-PCR and the quantification of exon 44 correction.
Exon Skipping Analysis by RT-PCR: hDMD mice and NHP express full-length human dystrophin mRNA. The delivery of AC can alter the splicing and result in a shortened dystrophin mRNA after exon 44 skipping. The tissues were homogenized using 1 mL of RLT lysis buffer (Qiagen, Cat #79216). The detection of splicing correction process was measured by RT-PCR where extracted RNAs from tissues were first reverse-transcribed into cDNA and further analyzed by one step RT-PCR using the following primer set: forward primer 5′-[…]-3′ (SEQ ID NO: 262) and reverse primer 5′-[…]-3′ (SEQ ID NO: 263). […] Quantification of the relative intensity of the bands corresponding to skipped and unskipped transcripts were performed to assess AC-induced exon-44-skipping efficacy. The degree (percentage) of splicing correction detected by RT-PCR was calculated using the following equation: % correction=(intensity of 493 bp fragment band)/(intensity of 493 bp fragment band+intensity of 641 bp fragment band).

[3] = MDX mice, single IV 20 mg/kg, day 5

## N=C(N)NCCC[C@H]1NC(=O)[C@H](CCCNC(N)=O)NC(=O)[C@@H](CCCNC(=N)N)NC(=O)[C@H](CCCNC(N)=O)NC(=O)[C@H](Cc2ccc3ccccc3c2)NC(=O)[C@@H](Cc2ccccc2)NC(=O)[C@H](Cc2ccccc2)NC(=O)[C@H](CCC(=O)NCCOCCOCCOCCOCCC(=O)N[C@@H](CCCCNC(=O)COCCOCCNC(=O)CCC(=O)NCCOCCOCCCCCCCl)C(N)=O)NC1=O [Compound 1a, cyclo(FfΦ-Cit-r-Cit-rQ)-PEG4-K-NH2] (cyclo([2Nal][Cit][dR][Cit][dR]E([PEG4-X1])F[dF]))
[1]
  IC50: 849 nM

## N=C(N)NCCC[C@H]1NC(=O)[C@H](CC2CCNCC2)NC(=O)[C@@H](CCCNC(=N)N)NC(=O)[C@H](CC2CCNCC2)NC(=O)[C@H](Cc2ccc3ccccc3c2)NC(=O)[C@@H](Cc2ccccc2)NC(=O)[C@H](Cc2ccccc2)NC(=O)[C@H](CCC(=O)NCCOCCOCCOCCOCCC(=O)N[C@@H](CCCCNC(=O)COCCOCCNC(=O)CCC(=O)NCCOCCOCCCCCCCl)C(N)=O)NC1=O [Compound 2a, cyclo(FfΦ-Pia-r-Pia-rQ)-PEG4-K-NH2] (cyclo([2Nal][Ala(piperidin-4-yl)][dR][Ala(piperidin-4-yl)][dR]E([PEG4-X1])F[dF]))
[1]
  IC50: 881 nM

## CN(C)CCCC[C@@H]1NC(=O)[C@H](Cc2ccc3ccccc3c2)NC(=O)[C@@H](Cc2ccccc2)NC(=O)[C@H](Cc2ccccc2)NC(=O)[C@H](CCC(=O)NCCOCCOCCOCCOCCC(=O)N[C@@H](CCCCNC(=O)COCCOCCNC(=O)CCC(=O)NCCOCCOCCCCCCCl)C(N)=O)NC(=O)[C@@H](CCCNC(=N)N)NC(=O)[C@H](CCCCN(C)C)NC(=O)[C@@H](CCCNC(=N)N)NC1=O [Compound 3a, cyclo(FfΦ-Dml-r-Dml-rQ)-PEG4-K-NH2] (cyclo(F[dF][2Nal][Lys(Me2)][dR][Lys(Me2)][dR]E([PEG4-X1])))
[1]
  IC50: 932 nM

## N=C(N)NCCC[C@H]1NC(=O)[C@H](CNC(=N)N)NC(=O)[C@@H](CCCNC(=N)N)NC(=O)[C@H](CNC(=N)N)NC(=O)[C@H](Cc2ccc3ccccc3c2)NC(=O)[C@@H](Cc2ccccc2)NC(=O)[C@H](Cc2ccccc2)NC(=O)[C@H](CCC(=O)NCCOCCOCCOCCOCCC(=O)N[C@@H](CCCCNC(=O)COCCOCCNC(=O)CCC(=O)NCCOCCOCCCCCCCl)C(N)=O)NC1=O [Compound A, cyclo(FfΦ-Agp-r-Agp-rQ)-PEG4-K-NH2] (cyclo([2Nal][Agp][dR][Agp][dR]E([PEG4-X1])F[dF]))
[1]
  IC50: 626 nM

## N=C(N)NCCC[C@H]1NC(=O)[C@H](CCNC(=N)N)NC(=O)[C@@H](CCCNC(=N)N)NC(=O)[C@H](CCNC(=N)N)NC(=O)[C@H](Cc2ccc3ccccc3c2)NC(=O)[C@@H](Cc2ccccc2)NC(=O)[C@H](Cc2ccccc2)NC(=O)[C@H](CCC(=O)NCCOCCOCCOCCOCCC(=O)N[C@@H](CCCCNC(=O)COCCOCCNC(=O)CCC(=O)NCCOCCOCCCCCCCl)C(N)=O)NC1=O [Compound B, cyclo(FfΦ-Agb-r-Agb-rQ)-PEG4-K-NH2] (cyclo([2Nal][Agb][dR][Agb][dR]E([PEG4-X1])F[dF]))
[1]
  IC50: 695 nM

## N=C(N)NCCCC[C@@H]1NC(=O)[C@H](Cc2ccc3ccccc3c2)NC(=O)[C@@H](Cc2ccccc2)NC(=O)[C@H](Cc2ccccc2)NC(=O)[C@H](CCC(=O)NCCOCCOCCOCCOCCC(=O)N[C@@H](CCCCNC(=O)COCCOCCNC(=O)CCC(=O)NCCOCCOCCCCCCCl)C(N)=O)NC(=O)[C@@H](CCCNC(=N)N)NC(=O)[C@H](CCCCNC(=N)N)NC(=O)[C@@H](CCCNC(=N)N)NC1=O [Compound C, cyclo(FfΦ-hR-r-hR-rQ)-PEG4-K-NH2] (cyclo([2Nal][hArg][dR][hArg][dR]E([PEG4-X1])F[dF]))
[1]
  IC50: 786 nM

## N=C(N)NCCC[C@H]1NC(=O)[C@H](Cc2ccc(NC(=N)N)cc2)NC(=O)[C@@H](CCCNC(=N)N)NC(=O)[C@H](Cc2ccc(NC(=N)N)cc2)NC(=O)[C@H](Cc2ccc3ccccc3c2)NC(=O)[C@@H](Cc2ccccc2)NC(=O)[C@H](Cc2ccccc2)NC(=O)[C@H](CCC(=O)NCCOCCOCCOCCOCCC(=O)N[C@@H](CCCCNC(=O)COCCOCCNC(=O)CCC(=O)NCCOCCOCCCCCCCl)C(N)=O)NC1=O [Compound D, cyclo(FfΦ-4gp-r-4gp-rQ)-PEG4-K-NH2] (cyclo([2Nal][Phe(4-guanidino)][dR][Phe(4-guanidino)][dR]E([PEG4-X1])F[dF]))
[1]
  IC50: 695 nM

## CCOCc1nc2c(N)nc3ccccc3c2n1CC(C)(C)O [Compound R848, reference compound]
IRF5 protein
  IRF5 protein expression: significantly increases IRF5 Protein expression

## N=C(N)NCCC[C@@H]1NC(=O)[C@H](Cc2ccc3ccccc3c2)NC(=O)[C@@H](Cc2ccccc2)NC(=O)[C@H](Cc2ccccc2)NC(=O)[C@H](CCC(=O)NCCOCCOCCOCCOCCC(=O)N[C@@H](CCCCNC(=O)COCCOCCNC(=O)CCC(=O)NCCOCCOCCCCCCCl)C(N)=O)NC(=O)[C@@H](CCCNC(=N)N)NC(=O)[C@H](CCCNC(=N)N)NC(=O)[C@@H](CCCNC(=N)N)NC1=O [EEV12, cyclo(FfΦRrRrQ)-PEG4-K(chloroalkane)-NH2, reference compound] (cyclo([2Nal]R[dR]R[dR]E([PEG4-X1])F[dF]))
[1]
  IC50: 792 nM

## Ac-KBK-AEEA-K(cyclo[FGFGRGRQ])-AEEA-K(N3)-NH2 [EEV-PMO-MDX-5]
Exon 23 of DMD; mouse, in vivo, iv, 20 mg/kg
  exon skipping in heart vs diaphragm, tibialis anterior, triceps: a lower level of exon skipping in heart tissue

## Ac-PKKKRKV-AEEA-K(cyclo[FGFGRGRQ])-AEEA-K(N3)-NH2 [EEV-PMO-MDX-4]
Exon 23 of DMD; [3]
  exon skipping in heart vs diaphragm, tibialis anterior, triceps: a lower level of exon skipping in heart tissue

## Ac-PKKKRKV-AEEA-K(cyclo[FGFGRGRQ])-PEG12-OH [EEV-PMO-IRF5-1]
IRF5 protein; RAW 264.7 cells, all tested concentrations
  IRF-5 protein expression compared to cells stimulated with R848: significant reduction in IRF-5 protein expression
IRF5 protein; mouse macrophage cells, 30 μM, 10 μM and 3 μM
  IRF5 protein levels: statistically significant reduction of IRF5 protein levels

## Ac-PKKKRKV-AEEA-K(cyclo[FfFGRGRQ])-AEEA-K(N3)-NH2 [EEV-PMO-MDX-7]
Exon 23 of DMD; [3]
  exon skipping in heart vs diaphragm, tibialis anterior, triceps: a lower level of exon skipping in heart tissue

## Ac-PKKKRKV-AEEA-K(cyclo[GfFGrGrQ])-AEEA-K(N3)-NH2 [EEV-PMO-MDX-6]
Exon 23 of DMD; [3]
  exon skipping in heart vs diaphragm, tibialis anterior, triceps: a lower level of exon skipping in heart tissue

## Ac-PKKKRKV-AEEA-K(cyclo[GfFGrGrQ])-PEG12-OH [EEV-PMO-DMD44-2]
[2]; 10 mpk IV, Diaphragm
  exon skipping: 14%
[2]; 10 mpk IV, TiA
  exon skipping: 22%
[2]; 10 mpk IV, Triceps
  exon skipping: 17%
[2]; 10 mpk IV, heart
  exon skipping: 0%
[2]; 20 mpk IV, Diaphragm
  exon skipping: 35%
[2]; 20 mpk IV, TiA
  exon skipping: 58%
[2]; 20 mpk IV, Triceps
  exon skipping: 44
[2]; 20 mpk IV, heart
  exon skipping: 2%
[2]; 40 mpk IV, Diaphragm
  exon skipping: 83%
[2]; 40 mpk IV, TiA
  exon skipping: 95%
[2]; 40 mpk IV, Triceps
  exon skipping: 92%
[2]; 40 mpk IV, heart
  exon skipping: 17%
[2]; 80 mpk IV, Diaphragm
  exon skipping: 99%
[2]; 80 mpk IV, TiA
  exon skipping: 99%
[2]; 80 mpk IV, Triceps
  exon skipping: 98%
[2]; 80 mpk IV, heart
  exon skipping: 79%
[2]; IV
  minimum efficacious dose in the heart: 40 mpk
